Measurements: patent publication US20230085307A1, “PYRIDAZINONE COMPOUND AND HERBICIDE” (NISSAN CHEMICAL CORPORATION, priority 2019, published 2023)

Tests used:
[1] = system: green foxtail; assay: Test Example 4: herbicidal effect by soil treatment (Table 19, symbol G); assay type: in vivo, green foxtail (Setaria viridis); conditions: amount of applied herbicide 320 g/ha
Outline: (§1)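 Step 1: sow seeds in sterilized diluvial soil, cover ~1.5 cm. Step 2: spray diluted emulsion onto soil surface at predetermined rate. Step 3: greenhouse, 25–30° C, three weeks. Step 4: grade effect on each plant by earlier criteria.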

[2] = system: Chinese sprangletop; assay: Test Example 3: herbicidal effect by foliage application, Wagner pot (Table 18, symbol D); assay type: in vivo, chinese sprangletop (Leptochloa chinensis); conditions: amount of applied herbicide 320 g/ha
Outline: (§2)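 Plants were sown in alluvial soil held under 0.1–0.5 cm standing water and grown 14 days in a greenhouse at 25–30 °C. An emulsifiable formulation, water-diluted to the set dose, was then sprayed onto the foliage, and effects were scored three weeks later using previously defined criteria.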

[3] = system: oval-leafed pondweed; assay: Test Example 1: herbicidal activity, application before weed generation under submerged conditions (Table 16, symbol C); assay type: in vivo, oval-leafed pondweed (Monochoria vaginalis); conditions: 320 g/ha applied herbicide
Outline: (§3)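 Submerged Wagner pots (alluvial soil, 4 cm water) sown with weed seeds and planted with 2.5-leaf rice seedlings; emulsifiable concentrate diluted in water applied to water surface on sowing day. Held in greenhouse at 25-30 °C; injury scored 0-5 by herbicidal rate after three weeks.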

[4] = system: redroot pigweed; assay: Test Example 4: herbicidal effect by soil treatment (Table 19, symbol N); assay type: in vivo, redroot pigweed (Amaranthus retroflexus); conditions: amount of applied herbicide 320 g/ha
Outline: as §1

[5] = system: velvetleaf; assay: Test Example 4: herbicidal effect by soil treatment (Table 19, symbol M); assay type: in vivo, velvetleaf (Abutilon theophrasti); conditions: amount of applied herbicide 320 g/ha
Outline: as §1

[6] = system: Japanese bulrush; assay: Test Example 1: herbicidal activity, application before weed generation under submerged conditions (Table 16, symbol B); assay type: in vivo, Japanese bulrush (Schoenoplectus juncoides); conditions: 320 g/ha applied herbicide
Outline: as §3

[7] = system: southern crabgrass; assay: Test Example 4: herbicidal effect by soil treatment (Table 19, symbol F); assay type: in vivo, southern crabgrass (Digitaria ciliaris); conditions: amount of applied herbicide 320 g/ha
Outline: as §1

[8] = system: blackgrass; assay: Test Example 4: herbicidal effect by soil treatment (Table 19, symbol J); assay type: in vivo, blackgrass (Alopecurus myosuroides); conditions: amount of applied herbicide 320 g/ha
Outline: as §1

[9] = system: barnyard grass; assay: Test Example 4: herbicidal effect by soil treatment (Table 19, symbol H); assay type: in vivo, barnyard grass (Echinochloa crus-galli); conditions: amount of applied herbicide 320 g/ha
Outline: as §1

[10] = system: chickweed; assay: Test Example 4: herbicidal effect by soil treatment (Table 19, symbol P); assay type: in vivo, common chickweed (Stellaria media); conditions: amount of applied herbicide 320 g/ha
Outline: as §1

[11] = system: late watergrass; assay: Test Example 2: herbicidal activity, application during weed generation under submerged conditions (Table 17, symbol A); assay type: in vivo, late watergrass (Echinochloa oryzicola); conditions: AAH 320 g/ha; application during weed generation, submerged conditions
Outline: (§4)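 Alluvial soil in Wagner pots was flooded to 4 cm depth and sown with the three weeds together; pots were kept in a greenhouse at 25° C. to 30° C. At the one to two leaf stage, an emulsion formulation diluted in water to a set rate went onto the water surface; scored three weeks later.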

[12] = system: oval-leafed pondweed; assay: Test Example 2: herbicidal activity, application during weed generation under submerged conditions (Table 17, symbol C); assay type: in vivo, oval-leafed pondweed (Monochoria vaginalis); conditions: AAH 320 g/ha; application during weed generation, submerged conditions
Outline: as §4

[13] = system: late watergrass; assay: Test Example 1: herbicidal activity, application before weed generation under submerged conditions (Table 16, symbol A); assay type: in vivo, late watergrass (Echinochloa oryzicola); conditions: 320 g/ha applied herbicide
Outline: as §3

[14] = system: lambsquarters; assay: Test Example 4: herbicidal effect by soil treatment (Table 19, symbol O); assay type: in vivo, lambsquarters (Chenopodium album); conditions: amount of applied herbicide 320 g/ha
Outline: as §1

[15] = system: rice flat sedge; assay: Test Example 3: herbicidal effect by foliage application, Wagner pot (Table 18, symbol E); assay type: in vivo, rice flat sedge (Cyperus iria); conditions: amount of applied herbicide 320 g/ha
Outline: as §2

[16] = system: Italian ryegrass; assay: Test Example 4: herbicidal effect by soil treatment (Table 19, symbol K); assay type: in vivo, Italian ryegrass (Lolium multiflorum); conditions: amount of applied herbicide 320 g/ha
Outline: as §1

[17] = system: persian speedwell; assay: Test Example 4: herbicidal effect by soil treatment (Table 19, symbol R); assay type: in vivo, Persian speedwell (Veronica persica); conditions: amount of applied herbicide 320 g/ha
Outline: as §1

[18] = system: windgrass; assay: Test Example 4: herbicidal effect by soil treatment (Table 19, symbol L); assay type: in vivo, windgrass (Apera spica-venti); conditions: amount of applied herbicide 320 g/ha
Outline: as §1

[19] = system: wild oat; assay: Test Example 4: herbicidal effect by soil treatment (Table 19, symbol I); assay type: in vivo, wild oat (Avena fatua); conditions: amount of applied herbicide 320 g/ha
Outline: as §1

[20] = system: barnyard grass; assay: Test Example 3: herbicidal effect by foliage application, Wagner pot (Table 18, symbol H); assay type: in vivo, barnyard grass (Echinochloa crus-galli); conditions: amount of applied herbicide 320 g/ha
Outline: as §2

[21] = system: Japanese bulrush; assay: Test Example 2: herbicidal activity, application during weed generation under submerged conditions (Table 17, symbol B); assay type: in vivo, Japanese bulrush (Schoenoplectus juncoides); conditions: AAH 320 g/ha; application during weed generation, submerged conditions
Outline: as §4

CCCC(=O)Oc1c(C)nn(C)c(=O)c1-c1c(-c2ccc(Cl)cc2F)sc2ccc(F)cc12 [2-349]
herbicidal effect on G: green foxtail [1]: 0 (Herbicidal rate of 5% or less (almost no effect))
herbicidal effect on D: Chinese sprangletop [2]: 5 (Herbicidal rate of 90% or more (almost completely withered))
Herbicidal effect on C: oval-leafed pondweed (grade 0-5) [3]: 0 (Herbicidal rate of 5% or less (almost no effect))
herbicidal effect on N: redroot pigweed [4]: 0 (Herbicidal rate of 5% or less (almost no effect))
herbicidal effect on M: velvetleaf [5]: 0 (Herbicidal rate of 5% or less (almost no effect))
Herbicidal effect on B: Japanese bulrush (grade 0-5) [6]: 0 (Herbicidal rate of 5% or less (almost no effect))
herbicidal effect on F: southern crabgrass [7]: 0 (Herbicidal rate of 5% or less (almost no effect))
herbicidal effect on J: blackgrass [8]: 0 (Herbicidal rate of 5% or less (almost no effect))
herbicidal effect on H: barnyard grass [9]: 0 (Herbicidal rate of 5% or less (almost no effect))
herbicidal effect on P: chickweed [10]: 3 (Herbicidal rate of 40% or more and less than 70%)
herbicidal effect rating, A: late watergrass [11]: 3 (Herbicidal rate of 40% or more and less than 70%)
herbicidal effect rating, C: oval-leafed pondweed [12]: 3 (Herbicidal rate of 40% or more and less than 70%)
Herbicidal effect on A: late watergrass (grade 0-5) [13]: 3 (Herbicidal rate of 40% or more and less than 70%)
herbicidal effect on O: lambsquarters [14]: 0 (Herbicidal rate of 5% or less (almost no effect))
herbicidal effect on E: rice flat sedge [15]: 4 (Herbicidal rate of 70% or more and less than 90%)
herbicidal effect on K: Italian ryegrass [16]: 4 (Herbicidal rate of 70% or more and less than 90%)
herbicidal effect on R: persian speedwell [17]: 4 (Herbicidal rate of 70% or more and less than 90%)
herbicidal effect on L: windgrass [18]: 0 (Herbicidal rate of 5% or less (almost no effect))
herbicidal effect on I: wild oat [19]: 0 (Herbicidal rate of 5% or less (almost no effect))
herbicidal effect on H: barnyard grass [20]: 5 (Herbicidal rate of 90% or more (almost completely withered))
herbicidal effect rating, B: Japanese bulrush [21]: 3 (Herbicidal rate of 40% or more and less than 70%)
